Measured values: patent US6488924B1, “Vitamin K adduct, particularly suitable as vitamin supplement for feeds” (Luigi Stoppani S.p.A., priority 1999, dated 2002)

Tests used:
[1] = Stability in extruded feed (fish farm feed); assay type: physicochemical; conditions: for menadione in feed, sampling point End point: after extrusion, drying and addition of fat; for menadione in feed, sampling point Mixer: after mixing, before extrusion
Description: Two preparations of vitamin supplement of approximately 2500 kg of feed were prepared for each vitamin K source. The vitamin K supplements were mixed in with the feed in an industrial mixer, extruded in a continuous extruder with the addition of live steam, dried and added with fat.

[2] = pH of the medium; cited from earlier work
[3] = Stability under pressure (press on disk of finely ground powder); assay type: physicochemical; conditions: 30 minutes
[4] = Solubility in water (saturated solution in demineralized water); assay type: physicochemical; conditions: ambient temperature, saturated solution in presence of a precipitate
[5] = Thermal stability in controlled humidity (dispersed in aluminum silicate); assay type: physicochemical
Description: A method described in the literature is used to compare the stability of Kavist with respect to MSB. According to this method, the products, as accurately dispersed in aluminum silicate (K.F. humidity around 11%) at the level of 1.5% by weight, are kept at 55° C. for 3 days in order to evaluate their menadione content before and after the treatment. The menadione titers of the adduct according to the invention and the percentage of menadione left unchanged before and after the treatment are listed hereafter.

[6] = Thermal stability in air-circulation stove; assay type: physicochemical; conditions: absence of humidity
[7] = Characteristic parameters and comparative tests adduct vs MSB: solubility; assay type: physicochemical; conditions: at 25° C.
[8] = Release of menadione in aqueous medium; assay type: physicochemical; conditions: demineralized water, municipal drinking water, seawater
Description: The menadione release capacity of the adduct according to the invention and of MSB in three different types of water (demineralized water, municipal drinking water, and seawater) is evaluated.
The following table lists the milligrams/liter of menadione found in the solution with respect to the total menadione of the polymeric adduct added as a suspension equal to 1 g/l ([…] menadione on 1 g of dry adduct): […]

Compound	menadione in feed, sampling point End point ([1]; 1st preparation)	menadione in feed, sampling point Mixer ([1]; 1st preparation)	menadione in feed, sampling point End point ([1]; 2nd preparation)	menadione in feed, sampling point Mixer ([1]; 2nd preparation)	pH at which isomerization into poorly effective product becomes complete [2]	percentage of menadione left unchanged ([3]; 1 atm, 25° C.)	percentage of menadione left unchanged ([3]; 1 atm, 120° C.)	percentage of menadione left unchanged ([3]; 25 atm, 25° C.)	percentage of menadione left unchanged ([3]; 25 atm, 120° C.)	percentage of menadione left unchanged ([3]; 5000 atm, 25° C.)	percentage of menadione left unchanged ([3]; 5000 atm, 120° C.)	Menadione concentration mg/l saturated solution [4]	Final menadione/initial menadione ([5]; 55° C. for 3 days in aluminum silicate (humidity around 11%))	Final menadione content ([5]; after 55° C. for 3 days in aluminum silicate (humidity around 11%))	Initial menadione content ([5]; before treatment, dispersed in aluminum silicate (humidity around 11%) at 1.5% by weight)	Men found/initial Men ([6]; 120° for 24 hours)	Color ([6]; after 120° for 24 hours)	water solubility [7]	menadione release in water (in words) [8]
CC1(S(=O)(=O)O)CC(=O)c2ccccc2C1=O.NC(=O)c1cccnc1 (centres unmarked) [MNB, menadione nicotinamide bisulfite]	22.7 mg/kg	86.1 mg/kg	18.1 mg/kg	86.3 mg/kg	–	–	–	–	–	–	–	–	–	–	–	–	–	–	–
CC1(S(=O)(=O)[O-])CC(=O)c2ccccc2C1=O.[Na+] (centres unmarked) [MSB, menadione sodium bisulfite]	21.0 mg/kg	90.9 mg/kg	16.1 mg/kg	87.6 mg/kg	approximately 8.5	100%	20%	100%	15%	80%	10%	Higher than 20 × 10^4 mg mg/l	15.5%	0.24%	1.52%	0%	Purple	50 g/100 ml at 25 °C	substantially instantaneous release
